# US12624057B2, “Bisphosphonate quinolone conjugates and uses thereof” (BIOVINC, LLC, priority 2016, dated 2026)
# “Also recorded” adds a separate entry of the source.
# How the values were obtained:
# Assay type in all cases: cell-based, Staphylococcus aureus
# [1] = system: planktonic S. aureus clinical osteomyelitis strains (MSSA and MRSA); experiment: MIC by microdilution against planktonic clinical S. aureus strains; conditions: for antimicrobial activity / MIC against planktonic S. aureus (in words): microdilution, 24 h
# Protocol: (§1) Subsequently, the plate was incubated for 24 h/37° C. in a shaker to obtain optimal conditions for microbial growth and to prevent bacteria from forming biofilms. After incubation, the absorbance was measured once again. The following control samples were established: negative control sample one: sterile medium without microbes; negative control sample two: sterile medium without microbes implemented with DMSO (dimethyl sulfoxide, Sigma-Aldritch) to final concentration of 1% (v/v); positive control sample one: medium+microbes with no compound tested; positive control sample two: medium+microbes with no compound tested but implemented with DMSO to final concentration of 1% (v/v). […] To assess relative number of cells, the following calculations were performed. […] Next, the relative number of cells subjected to incubation with tested compounds were counted as follows: […].
# as §1, with “Evaluation of the MIC of tested compounds against planktonic forms of clinical staphylococcal strains analyzed: To assess the impact of parent antibiotic and conjugates on microbial growth, 100 μl of microbial solutions of density 1×10^5 CFU/ml were placed into wells of 96-well test plates together with appropriate concentrations of tested compounds. […] Subsequently,” for “Subsequently,”, “plates were” for “the plate was”, “hrs/37°” for “h/37°”, “Sigma-Aldrich)” for “Sigma-Aldritch)”
# The occurrence of opacification or lack of opacification of media was proof of pathogen growth or lack of growth, respectively. Additionally, bacterial solutions were cultured on the appropriate stable medium. Growth or lack of growth of bacterial colonies together with above-mentioned results from liquid cultures served as confirmation of results obtained spectrophotometrically.
# [2] = system: biofilms of S. aureus strain ATCC-6538; experiment: Preformed biofilms on HA discs, S. aureus; conditions: HA as substrate
# Protocol: Antimicrobial susceptibility testing of BP-ciprofloxacin against preformed biofilms of S. aureus strain ATCC-6538 and P. aeruginosa strain ATCC-15442: Strains cultured on appropriate agar plates (Columbia agar plate for S. aureus; MacConkey agar plate for P. aeruginosa) were transferred to liquid microbiological media and incubated for 24 h/37° C. under aerobic conditions. After incubation, strains were diluted to the density of 1 MF. The microbial dilutions were introduced to wells of 24-well plates containing HA discs as a substrate, or simply to polystyrene wells where the bottom surface of the wells served as the substrate for biofilm development. Strains were incubated at 37° C. for 4 hrs. Next, the microbe-containing solutions were removed from the wells. The surfaces, HA discs and polystyrene plates, were gently rinsed to leave adhered cells and to remove planktonic or loosely-bound microbes. Surfaces prepared in this manner were immersed in fresh TSB medium containing 0.24-125 mg/L of BP-ciprofloxacin conjugate. After 24 hrs of incubation at 37° C. the surfaces were rinsed using physiological saline solution and transferred to 1 mL of 0.5% saponin (Sigma-Aldrich, St Louis, MO). The surfaces were vortex-mixed vigorously for 1 minute to detach cells. Subsequently, all microbial suspensions were diluted 10 to 10^9 times. Each dilution ([…]) was cultured on the appropriate stable medium (MacConkey, Columbia for P. aeruginosa and S. aureus, respectively) and incubated at 37-C for 24 hours. After this time, the microbial colonies were counted and the number of cells forming biofilm was assessed. Results were presented as the mean number of CFU per square millimeter surface±standard error of the mean. To estimate the exact surface area of HA discs, x-ray tomographic analysis was applied. For estimation of the area of test plate bottoms, the equation for circle area: πr2 was applied.
# Antimicrobial susceptibility testing of 6 against preformed biofilms of S. aureus strain ATCC-6538 and P. aeruginosa strain ATCC-15442: Strains cultured on appropriate agar plates (Columbia agar plate for S. aureus; MacConkey agar plate for P. aeruginosa) were transferred to liquid microbiological media and incubated for 24 hrs/37° C. under aerobic conditions. After incubation, strains were diluted to the density of 1 MF. The microbial dilutions were introduced to wells of 24-well plates containing HA discs as a substrate, or simply to polystyrene wells where the bottom surface of the wells served as the substrate for biofilm development. Strains were incubated at 37° C. for 4 hrs. Next, the microbe-containing solutions were removed from the wells. The surfaces, HA discs and polystyrene plates, were gently rinsed to leave adhered cells and to remove planktonic or loosely-bound microbes. […] After 24 hrs of incubation at 37° C. the surfaces were rinsed using physiological saline solution and transferred to 1 mL of 0.5% saponin (Sigma-Aldrich, St Louis, MO). The surfaces were vortex-mixed vigorously for 1 minute to detach cells. Subsequently, all microbial suspensions were diluted 10-1 to 10-9 times. Each dilution ([…]) was cultured on the appropriate stable medium (MacConkey, Columbia for P. aeruginosa and S. aureus, respectively) and incubated at 37° C. for 24 hrs. After this time, the microbial colonies were counted and the number of cells forming biofilm was assessed. Results were presented as the mean number of CFU per square millimeter surface±standard error of the mean. To calculate the surface area of HA discs, x-ray tomographic analysis was applied. For estimation of the area of test plate bottoms, the equation for circle area: πr^2 was applied.
# S. aureus 6538 = experiment: Preventative assay, HA spherules pretreated then inoculated with S. aureus
# Protocol: Preventative ability of BP-ciprofloxacin conjugate to inhibit S. aureus 6538 adherence to HA spherules: Various BP-ciprofloxacin concentrations were introduced to HA powder (spherules) suspended in TSB microbiological medium. Solutions containing conjugate and HA spherules were introduced to wells of 24-well plates. Final concentrations of powder were 10 mg/1 mL, while final concentrations of the conjugate were 0.12-250 mg/L. Suspensions were left for 24 h/37° C./shaking. After 24 h, suspensions were removed from the wells and impulse-centrifuged to precipitate HA powder. Next, supernatant was very gently discarded and a fresh 1 mL of S. aureus of density 10^5 cfu/mL was introduced to the HA spherules. Subsequently, this solution was shaken, absorbance was measured using 580 nm wavelength and left for 24 h/37° C./shaking. After incubation absorbance was measured again and values from 0 hr and 24 hrs were compared to assess reduction of bacterial growth with regard to control sample one (bacterial suspension but no spherules) and control sample two (bacterial suspension+spherules but with no conjugate added). Additionally, solutions were impulse-centrifuged, supernatant was gently discarded, while bacteria-containing HA spherules were culture plated as before and quantitatively assessed. […]
# [3] = system: S. aureus ATCC6538 biofilms; experiment: Survival of S. aureus biofilm on pretreated, rinsed HA discs; conditions: pretreated HA discs
# Protocol: HA discs incubated in DMSO or phosphate buffer served as control samples. Next, discs were rinsed 3 times with sterile water. After rinsing, 2 mL of 0.5 MF of. S. aureus ATCC6538 were introduced to wells containing HA discs as a substrate for biofilm development and biofilms were formed as before.
structure (smiles),measurement,setting,value
"O=C(O)c1cn(C2CC2)c2cc(N3CCN(C(=O)c4ccc(CC(P(=O)(O)O)P(=O)(O)O)cc4)CC3)c(F)cc2c1=O [Compound 11, 1-cyclopropyl-7-(4-(4-(2,2-diphosphonoethyl)benzoyl)piperazin-1-yl)-6-fluoro-4-oxo-1,4-dihydroquinoline-3-carboxylic acid]",concentration of 11 relative to 6 to achieve the same antibacterial effect,"[1]; MIC assay, S. aureus strains",2-64 ×
same,antimicrobial activity / MIC against planktonic S. aureus (in words),[1],weaker activity
same,antimicrobial activity / MIC against planktonic S. aureus (in words),[1]; listed as BAC,very little effect on bacterial growth under any circumstances; also recorded: has lost most of the activity
same,bactericidal activity / reduction of CFUs against established biofilm (in words),[2],insignificant; also recorded: No significant activity is observed at any concentration
same,preventative antimicrobial activity on pretreated HA (in words),S. aureus 6538,insignificant; also recorded: not detectable; also recorded: no antimicrobial activity is observed
same,ability to prevent biofilm formation on pretreated HA (in words),[3],no significant antimicrobial activity
same,ability to prevent biofilm formation on pretreated HA (in words),[3]; listed as BAC,did not inhibit the growth of biofilms on bone substitute even at very high concentrations
